Laboratory results as given in patent publication US11723890B2, “Methods of treatment using an mTORC1 modulator” (Navitor Pharmaceuticals, Inc., priority 2019, dated 2023).

Test system: subjects with TRD
Assay: Example 1 Part B: preliminary efficacy on depression rating scales in subjects with TRD
Type: in vivo, human
Details: for Effect size, HAM-D6 for ≤55 years old / Effect size, HAM-D6 for ≥36 MADRS at baseline / Effect size, CGI-S for ≤55 years old / Effect size, MADRS Total for ≤55 years old / Effect size, CGI-S for ≥36 MADRS at baseline / Effect size, MADRS Total for ≥36 MADRS at baseline / Effect size, IDS-SR Psychomotor Domain / Effect size, MADRS-06 (core) / Effect size, MADRS-08 (core-plus): post-hoc; for Effect size, HAM-D6 for ≤55 years old / Effect size, CGI-S for ≤55 years old / Effect size, MADRS Total for ≤55 years old: N = 14; for Effect size, HAM-D6 for ≥36 MADRS at baseline / Effect size, CGI-S for ≥36 MADRS at baseline / Effect size, MADRS Total for ≥36 MADRS at baseline: N = 16
Method: Primary Efficacy Endpoint: The primary efficacy endpoint was the difference between the compound A group and the placebo group in change from baseline in the Montgomery Asberg Depression Rating Scale (MADRS) total score at Day 2 (24 hours post dose).
Secondary Efficacy Endpoints: Secondary preliminary efficacy endpoints were the difference between the compound A group and the placebo group in: • change from baseline in the MADRS total score at each time point • change from baseline in the Hamilton Depression Rating Scale-6 Item (HAM-D6) total score at each time point • change from baseline in the IDS-SR30 total score and domain scores at each time point • change from baseline in the Clinical Global Impression-Severity (CGI-S) score at each time point
Preliminary Efficacy Evaluations: Other psychiatric evaluations were performed to assess preliminary efficacy in Part B only. These evaluations included the Montgomery-Asberg Depression Rating Scale (MADRS), the Hamilton Depression Rating Scale-6 Item (HAM-D6), the Clinical Global Impression-Severity (CGI-S), and the Inventory of Depressive Symptomatology (30-item, self-rated version) (IDS-SRN). Montgomery-Asberg Depression Rating Scale (MADRS).
The MADRS is a clinician-administered scale used to assess the range of symptoms that are most frequently observed in patients with major depression. The scale includes 10 items, each scored on a scale of 0 to 6. The MADRS was administered centrally by a third-party independent rater blinded to protocol, visit, and treatment.
Hamilton Depression Rating Scale-6 Item (HAM-D6): The HAM-D6 is a clinician-administered scale used to assess key domains of depressive symptomatology. The HAM-D6 was derived from the original 17-item version of the scale (HAM-D17). Five of the six items are scored on a scale of 0 to 4, and one item is scored on a scale of 0 to 2.
Clinical Global Impression-Severity (CGI-S): The CGI-S is a 7-point clinician-administered scale used to assess the severity of the patient's illness at the time of assessment relative to the clinician's past experience with patients who have the same diagnosis.
Inventory of Depressive Symptomatology (30-Item, Self-Rated Version) (IDS-SR30): The IDS-SR30 is a self-rated scale used to assess the severity of depressive symptomatology. The scale includes 30 items, each scored on a scale of 0 to 3.
The MADRS total score was centrally administered. The HAM-D6 was site-administered. The CGI-S was site physician administered. The IDS-SR was patient self-administered. MADRS-6 and MADRS-8 scores were then extrapolated post hoc from the MADRS total scores.
MADRS-10 items include apparent sadness, reported sadness, inner tension, reduced sleep, reduced appetite, concentration difficulties, lassitude, inability to feel, pessimistic thoughts, and suicidal thoughts. MADRS-6 items include apparent sadness, reported sadness, inner tension, lassitude, inability to feel, and pessimistic thoughts. MADRS-8 items include apparent sadness, reported sadness, inner tension, concentration difficulties, lassitude, inability to feel, pessimistic thoughts, and suicidal thoughts. HAM-D6 items include depressed mood, low self-esteem/guilt, work and interests, psychomotor retardation, psychic anxiety, and somatic symptoms.
When determining clinically significant antidepressant effect, it is recommended to use standardized effect size statistics. The correct use of depression rating scales in clinical trials of antidepressants is to indicate the effect size of the specific items of depression and to accept an effect size of 0.40 or higher as being the clinically significant effect. An effect size of ≥0.2 indicates early improvement. An effect size of ≥0.4 indicates a clinical response.

[1] = single 2400 mg vs placebo, 12 h
[2] = single 2400 mg vs placebo, 24 h
[3] = single 2400 mg vs placebo, 24 h, N = 31
[4] = single 2400 mg vs placebo, 24 h, prespecified, N = 31
[5] = single 2400 mg vs placebo, 36 h
[6] = single 2400 mg vs placebo, 48 h
[7] = single 2400 mg vs placebo, 48 h, N = 31
[8] = single 2400 mg vs placebo, 48 h, prespecified, N = 31
[9] = single 2400 mg vs placebo, 72 h
[10] = single 2400 mg vs placebo, 72 h, N = 31
[11] = single 2400 mg vs placebo, 72 h, prespecified, N = 31
[12] = single 2400 mg, 24 hours post dose

## CC(C)(C[C@H](N)C(=O)O)C(F)F [Compound A, (S)-2-amino-5,5-difluoro-4,4-dimethylpentanoic acid]
Single 2400 mg
  duration of numerical benefits on HAM-D6: 24 to 72 h
  onset of efficacy on HAM-D6: as early as two hours post-dose
Single 2400 mg vs placebo
  MADRS items with greater impact than placebo: inner tension, concentration, pessimistic thoughts, and inability to feel
Single 2400 mg vs placebo, 2 h
  Effect size, HAM-D6 for ≤55 years old: 0.8
  Effect size, HAM-D6 for ≥36 MADRS at baseline: 1.0
Single 2400 mg vs placebo, 2 h, prespecified, N = 31
  Effect size, HAM-D6: 0.6
Single 2400 mg vs placebo, 4 h
  Effect size, HAM-D6 for ≤55 years old: 1.0
  Effect size, HAM-D6 for ≥36 MADRS at baseline: 1.1
Single 2400 mg vs placebo, 4 h, prespecified, N = 31
  Effect size, HAM-D6: 0.8
Single 2400 mg vs placebo, 8 h
  Effect size, HAM-D6 for ≤55 years old: 1.1
  Effect size, HAM-D6 for ≥36 MADRS at baseline: 0.8
Single 2400 mg vs placebo, 8 h, prespecified, N = 31
  Effect size, HAM-D6: 0.7
[1]
  Effect size, HAM-D6 for ≤55 years old: 1.3
  Effect size, HAM-D6 for ≥36 MADRS at baseline: 0.9
Single 2400 mg vs placebo, 12 h, prespecified, N = 31
  Effect size, HAM-D6: 0.8
[2]
  Effect size, CGI-S for ≤55 years old: 0.2
  Effect size, HAM-D6 for ≤55 years old: 0.9
  Effect size, MADRS Total for ≤55 years old: 0.6
  Effect size, CGI-S for ≥36 MADRS at baseline: 0.2
  Effect size, HAM-D6 for ≥36 MADRS at baseline: 0.8
  Effect size, MADRS Total for ≥36 MADRS at baseline: 0.4
[3]
  Effect size, IDS-SR Psychomotor Domain: 0.8
  Effect size, MADRS-06 (core): 0.3
  Effect size, MADRS-08 (core-plus): 0.3
[4]
  Effect size, CGI-S Change from baseline: -0.1
  Effect size, HAM-D6: 0.5
  Effect size, IDS-SR 30 Total Score: 0.3
  Effect size, MADRS Total Score (prelim. primary @24 h): 0.1
[5]
  Effect size, HAM-D6 for ≤55 years old: 1.3
  Effect size, HAM-D6 for ≥36 MADRS at baseline: 0.9
Single 2400 mg vs placebo, 36 h, prespecified, N = 31
  Effect size, HAM-D6: 0.5
[6]
  Effect size, CGI-S for ≤55 years old: 0.4
  Effect size, HAM-D6 for ≤55 years old: 1.2
  Effect size, MADRS Total for ≤55 years old: 0.6
  Effect size, CGI-S for ≥36 MADRS at baseline: 0.7
  Effect size, HAM-D6 for ≥36 MADRS at baseline: 0.9
  Effect size, MADRS Total for ≥36 MADRS at baseline: 0.3
[7]
  Effect size, IDS-SR Psychomotor Domain: 0.3
  Effect size, MADRS-06 (core): 0.3
  Effect size, MADRS-08 (core-plus): 0.3
[8]
  Effect size, CGI-S Change from baseline: 0.1
  Effect size, HAM-D6: 0.5
  Effect size, IDS-SR 30 Total Score: 0.3
  Effect size, MADRS Total Score: 0.2
[9]
  Effect size, CGI-S for ≤55 years old: 0.2
  Effect size, HAM-D6 for ≤55 years old: 1.1
  Effect size, MADRS Total for ≤55 years old: 0.3
  Effect size, CGI-S for ≥36 MADRS at baseline: 1.0
  Effect size, HAM-D6 for ≥36 MADRS at baseline: 0.8
  Effect size, MADRS Total for ≥36 MADRS at baseline: 0.3
[10]
  Effect size, IDS-SR Psychomotor Domain: 0.6
  Effect size, MADRS-06 (core): 0.1
  Effect size, MADRS-08 (core-plus): 0.1
[11]
  Effect size, CGI-S Change from baseline: 0.2
  Effect size, HAM-D6: 0.4
  Effect size, IDS-SR 30 Total Score: 0.3
  Effect size, MADRS Total Score: -0.1
[12]
  MADRS concentration scores: marked improvement
  MADRS item Apparent Sadness, % CFB: −12.3%
  MADRS item Apparent Sadness, CFB: −0.56
  MADRS item Apparent Sadness, score Day 1: 4.00
  MADRS item Concentration, % CFB: −23.1%
  MADRS item Concentration, CFB: −0.94
  MADRS item Concentration, score Day 1: 3.13
  MADRS item Inability to Feel, % CFB: −12.9%
  MADRS item Inability to Feel, CFB: −0.56
  MADRS item Inability to Feel, score Day 1: 3.81
  MADRS item Inner Tension, % CFB: −40.5%
  MADRS item Inner Tension, CFB: −1.06
  MADRS item Inner Tension, score Day 1: 1.56
  MADRS item Lassitude, % CFB: −1.8%
  MADRS item Lassitude, CFB: −0.06
  MADRS item Lassitude, score Day 1: 3.44
  MADRS item Pessimistic Thoughts, % CFB: −23.3%
  MADRS item Pessimistic Thoughts, CFB: −0.63
  MADRS item Pessimistic Thoughts, score Day 1: 2.06
  MADRS item Reduced Appetite, % CFB: −14.3%
  MADRS item Reduced Appetite, CFB: −0.44
  MADRS item Reduced Appetite, score Day 1: 2.63
  MADRS item Reduced Sleep, % CFB: −7.4%
  MADRS item Reduced Sleep, CFB: −0.31
  MADRS item Reduced Sleep, score Day 1: 3.94
  MADRS item Reported Sadness, % CFB: −19.2%
  MADRS item Reported Sadness, CFB: −0.94
  MADRS item Reported Sadness, score Day 1: 3.94
  MADRS item Suicidal Thoughts, % CFB: −9.1%
  MADRS item Suicidal Thoughts, CFB: −0.06
  MADRS item Suicidal Thoughts, score Day 1: 0.63
  MADRS-10 TOTAL SCORE, CFB: −5.5
Single 2400 mg, at 2 h
  Change in HAM-D6 Total Score: −2.0
  Change in HAM-D6 Total Score, Difference Compound A vs Placebo: −1.3
Single 2400 mg, at 4 h
  Change in HAM-D6 Total Score: −2.6
  Change in HAM-D6 Total Score, Difference Compound A vs Placebo: −1.8
Single 2400 mg, at 8 h
  Change in HAM-D6 Total Score: −2.9
  Change in HAM-D6 Total Score, Difference Compound A vs Placebo: −1.7
Single 2400 mg, at 12 h
  Change in HAM-D6 Total Score: −3.9
  Change in HAM-D6 Total Score, Difference Compound A vs Placebo: −2.7
Single 2400 mg, at 24 h
  Change in HAM-D6 Total Score: −3.5
  Change in HAM-D6 Total Score, Difference Compound A vs Placebo: −1.5
Single 2400 mg, at 36 h
  Change in HAM-D6 Total Score: −4.3
  Change in HAM-D6 Total Score, Difference Compound A vs Placebo: −1.8
Single 2400 mg, at 48 h
  Change in HAM-D6 Total Score: −3.7
  Change in HAM-D6 Total Score, Difference Compound A vs Placebo: −1.3
Single 2400 mg, at 72 h
  Change in HAM-D6 Total Score: −4.1
  Change in HAM-D6 Total Score, Difference Compound A vs Placebo: −1.3
Single dose 2400 mg, FIG. 2
  HAM-D6 scores: rapid and sustained efficacy
